Legend:
[1] = system: Phakopsora pachyrhizi (strain containing the amino acid substitution F129L in the mitochondrial cytochrome b protein); experiment: Use example 2: protective control of soybean rust on soybeans (PHAKPA P6), inoculation six days after spraying; type: in vivo; settings: % diseased leaf area on soybean, 16 ppm spray, inoculation six days after treatment, untreated controls usually >85 %
Protocol: (§1) The compound was dissolved in a mixture of acetone and/or dimethylsulfoxide and the wetting agent/emulsifier Wettol, which is based on ethoxylated alkylphenoles, in a ratio (volume) solvent-emulsifier of 99 to 1 to give a total volume of 5 ml. Subsequently, water was added to total volume of 100 ml. This stock solution was then diluted with the described solvent-emulsifier-water mixture to the final concentration given in the table below.
Use example 2. Protective control of soybean rust on soybeans caused by Phakopsora pachyrhizi (PHAKPA P6)
(§2) Leaves of potted soybean seedlings were sprayed to run-off with the previously described spray solution, containing the concentration of active ingredient as described below. The plants were allowed to air-dry. The trial plants were cultivated for six days in a greenhouse chamber at 23-27° C. and a relative humidity between 60 and 80 %. Then the plants were inoculated with spores of Phakopsora pachyrhizi. The strain used contains the amino acid substitution F129L in the mitochondrial cytochrome b protein conferring resistance to Qo inhibitors. To ensure the success the artificial inoculation, the plants were transferred to a humid chamber with a relative humidity of about 95 % and 23 to 27° C. for 24 hr. The trial plants were cultivated for up to 14 days in a greenhouse chamber at 23 to 27° C. and a relative humidity between 60 and 80 %. The extent of fungal attack on the leaves was visually assessed as % diseased leaf area, the disease level of untreated controls was usually higher than 85 %.
(§3) All test results below are given for the control of phytopathogenic fungi containing the amino acid substitution F129L in the mitochondrial cytochrome b protein conferring resistance to Qo inhibitors.

[2] = system: Phakopsora pachyrhizi (strain containing the amino acid substitution F129L in the mitochondrial cytochrome b protein); experiment: Use example 1: protective control of soybean rust on soybeans (PHAKPA P2), inoculation 2 days after spraying; type: in vivo; settings: % diseased leaf area on soybean, 16 ppm spray, inoculation 2 days after treatment, untreated controls usually >85 %
Protocol: as §1
Use example 1. Protective control of soybean rust on soybeans caused by Phakopsora pachyrhizi (PHAKPA P2)
as §2, with “active ingredient or their mixture as described” for “active ingredient as described”, “cultivated for 2 days in” for “cultivated for six days in”, “% and 20 to 24°” for “% and 23 to 27°”, “20 to 24° C. for” for “23 to 27° C. for”
as §3

SMILES | PHAKPA Disease level (%) P6 at 16 ppm [1] | PHAKPA Disease level (%) P2 at 16 ppm [2]
CNC(=O)/C(=N/OC)c1ccccc1CO/N=C(\C)C#Cc1ccc(Cl)cc1F [Example 83] | 22% | 17%
CO/N=C(/C(=O)OC)c1cccc(C)c1CO/N=C(\C)C#Cc1ccccc1Cl [Example 75] | 40% | 22%
CNC(=O)/C(=N/OC)c1ccccc1CO/N=C(\C)C#Cc1ccc(F)cc1 [Example 8] | 0.7% | 0%
CNC(=O)/C(=N/OC)c1ccccc1CO/N=C(\C)C#Cc1ccc(Oc2ccc(F)cc2)cc1 [Example 111] | 23% | 33%
CNC(=O)/C(=N/OC)c1cccc(C)c1CO/N=C(\C)C#Cc1ccc(C)cc1 [Example 19] | 0.6% | 0%
CO/N=C(/C(=O)OC)c1ccccc1CO/N=C(\C)C#Cc1cccc(C)c1 [Example 43] | 27% | 40%
CO/N=C(/C(=O)OC)c1cccc(C)c1CO/N=C(\C)C#Cc1ccccc1F [Example 61] | 8% | 8%
CO/N=C(/C(=O)OC)c1ccccc1CO/N=C(\C)C#Cc1ccccc1Cl [Example 74] | 47% | 42%
CNC(=O)/C(=N/OC)c1ccccc1CO/N=C(\C)C#Cc1ccc(C2CC2)cc1 [Example 92] | 57% | 60%
CO/N=C(/C(=O)OC)c1ccccc1CO/N=C(\C)C#Cc1ccc(Oc2ccc(F)cc2)cc1 [Example 100] | 77% | 77%
CNC(=O)/C(=N/OC)c1cccc(C)c1CO/N=C(\C)C#Cc1cccc(Cl)c1 [Example 77] | 0% | 0%
CO/C=C(/C(=O)OC)c1ccccc1CO/N=C(\C)C#Cc1ccc(F)cc1 [Example 114] | 0% | 0%
CO/N=C(/C(=O)OC)c1cccc(C)c1CO/N=C(\C)C#Cc1ccc(F)c(C(=O)OC)c1 [Example 123] | 37% | 43%
CNC(=O)/C(=N/OC)c1cccc(C)c1CO/N=C(\C)C#Cc1ccc(Br)cc1 [Example 59] | 28% | 13%
CO/N=C(/C(=O)OC)c1ccccc1CO/N=C(\C)C#Cc1ccc2c(c1)OC(F)(F)O2 [Example 85] | 83% | 100%
CNC(=O)/C(=N/OC)c1ccccc1CO/N=C(\C)C#Cc1ccc(Cl)cc1C(F)(F)F [Example 99] | 0% | 0%
CO/N=C(/C(=O)OC)c1ccccc1CO/N=C(\C)C#Cc1cccc(OC(F)(F)F)c1 [Example 52] | 33% | 13%
CNC(=O)/C(=N/OC)c1ccccc1CO/N=C(\C)C#Cc1ccccc1C(F)(F)F [Example 69] | 2% | 1%
CNC(=O)/C(=N/OC)c1cccc(C)c1CO/N=C(\C)C#Cc1cccc(C)c1 [Example 57] | 0% | 0%
CO/N=C(/C(=O)OC)c1cccc(C)c1CO/N=C(\C)C#Cc1cccc(Br)c1 [Example 30] | 0% | 0%

SMILES | PHAKPA Disease level (%) P6 at 16 ppm [1] | PHAKPA Disease level (%) P2 at 16 ppm [2]
CNC(=O)/C(=N/OC)c1ccccc1CO/N=C(\C)C#Cc1ccc(OC2CC2)cc1 [Example 106] | 13% | 23%
CNC(=O)/C(=N/OC)c1ccccc1CO/N=C(\C)C#Cc1ccccc1Br [Example 48] | 2% | 0%
CO/N=C(/C(=O)OC)c1cccc(C)c1CO/N=C(\C)C#Cc1ccc(C(F)(F)F)cc1 [Example 64] | 60% | 43%
CNC(=O)/C(=N/OC)c1ccccc1CO/N=C(\C)C#Cc1ccccc1F [Example 62] | 2% | 2%
CO/N=C(/C(=O)OC)c1ccccc1CO/N=C(\C)C#Cc1ccc(Cl)cc1-c1ccc(F)cc1 [Example 118] | 4% | 3%
CNC(=O)/C(=N/OC)c1ccccc1CO/N=C(\C)C#Cc1ccc2c(c1)OC(F)(F)O2 [Example 84] | 67% | 77%
CO/C=C(/C(=O)OC)c1cccc(C)c1CO/N=C(\C)C#Cc1ccc(F)cc1 [Example 70] | 0% | 0%
CO/N=C(/C(=O)OC)c1ccccc1CO/N=C(\C)C#Cc1cccc(Br)c1 [Example 6] | 43% | 25%
CNC(=O)/C(=N/OC)c1ccccc1CO/N=C(\C)C#Cc1ccc(OCC(F)(F)F)cc1 [Example 104] | 32% | 53%
CO/N=C(/C(=O)OC)c1ccccc1CO/N=C(\C)C#Cc1ccc(Cl)cc1C1CC1 [Example 91] | 43% | 53%
CNC(=O)/C(=N/OC)c1ccccc1CO/N=C(\C)C#Cc1c(Cl)cccc1Cl [Example 107] | 15% | 27%
CO/N=C(/C(=O)OC)c1cccc(C)c1CO/N=C(\C)C#Cc1cccc(C)c1 [Example 42] | 6% | 3%
CNC(=O)/C(=N/OC)c1cccc(C)c1CO/N=C(\C)C#Cc1ccccc1F [Example 63] | 0% | 0%
CO/N=C(/C(=O)OC)c1cccc(C)c1CO/N=C(\C)C#Cc1cccc(F)c1 [Example 36] | 9% | 4%
CNC(=O)/C(=N/OC)c1ccccc1CO/N=C(\C)C#Cc1ccc(Cl)cc1C(C)C [Example 110] | 2% | 0%
CNC(=O)/C(=N/OC)c1ccccc1CO/N=C(\C)C#Cc1cccc(C)c1 [Example 58] | 4% | 2%
CNC(=O)/C(=N/OC)c1cccc(C)c1CO/N=C(\C)C#Cc1ccc(Cl)cc1 [Example 31] | 5% | 0%
CNC(=O)/C(=N/OC)c1ccccc1CO/N=C(\C)C#Cc1ccc(OC(F)(F)F)cc1C1CC1 [Example 120] | 22% | 15%
CO/N=C(/C(=O)OC)c1ccccc1CO/N=C(\C)C#Cc1ccc(Cl)cc1F [Example 90] | 57% | 30%

From patent US20230303483A1, “USE OF STROBILURIN TYPE COMPOUNDS FOR COMBATING PHYTOPATHOGENIC FUNGI CONTAINING AN AMINO ACID SUBSTITUTION F129L IN THE MITOCHONDRIAL CYTOCHROME B PROTEIN CONFERRING RESISTANCE TO QO […]” (BASF SE, priority 2020, published 2023)
